Assay results as given in patent US7288556B2, “Antiproliferative 1,2,3-thiadiazole compounds” (QLT Inc., priority 2000, dated 2007).
Marks after values point to notes of the source that are not given here.

Tests used:
Lewis Lung cell line = settings: cells inoculated subcutaneously in rear flank of mice, compound i.p. daily
Experimental: Anti-tumour efficacy and dose response in allograft and xenograft models. Cell lines were selected from an in vitro assay based on ILK expression, and growth curves characterized in vivo. Preliminary tests were performed with the Lewis Lung cell line in a murine allograft tumor model. In parallel, human xenograft tumor lines were characterized.
Cells were inoculated subcutaneously in the rear flank of mice, and the test compound was administered i.p. daily. Tumors were measured and the size calculated, with the objective being a decrease in tumor growth compared to the controls.

IEC-18-13 Epithelium = assay: Matrigel invasion assay, IEC-18-13; assay type: cell-based; settings: 10 μm, 24 h, control 34.9
Experimental: (§1) c. Invasion Assays: Invasion of cells into surrounding tissue is a hallmark property of tissue remodeling. Tissue remodeling occurs during most pathological progression, including tumor progression, angiogenesis and during normal processes such as wound healing. The following invasion assays were performed using Biocoat® Cell Environments™ Matrigel Invasion Chamber 24-Well Plate Size (Becton Dickinson). The invasion chambers can be used to assess the ability of a cell to traverse an extracellular matrix under a variety of conditions. The chambers consist of a 24 well plate and […] that can be suspended in each well and act as an upper chamber. Cells place in the upper chamber insert must invade through a matrix in order to enter the lower chamber.
(§2) Cells were pre-labeled with ^3H-thymidine overnight. Typically, 5×10^5 cells were cultured overnight in 5 mls of serum-containing media spiked with 200 μl of thymidine stock solution. Cells were scraped off of the flask substratum and gently pipetted up and down to achieve single cell suspension in the medium. […]
(§3) After an incubation period of 24 h, media was carefully removed from the upper chamber insert and saved for scintillation counting. […] The relative amount of cell invasion was calculated by adding counts from the filters and lower chambers and dividing this sum by the total counts added initially to the upper chambers. […]

[1] = system: chick chorioallantoic membrane; assay: Chick chorioallantoic membrane (CAM) developmental angiogenesis assay; assay type: in vivo, chicken
Experimental: e. Chick chorioallantoic membrane assay (CAM assay): was performed on fertilized chicken eggs and used as a test for angiogenesis inhibition.
Approximately 4 dozen fertilized eggs were sprayed with 70% ETOH and placed in a 180 egg incubator (GQF Sportsman incubator). The eggs were incubated “rounded-side down” and were fully rotated along the vertical axis every 30 minutes at 37° C. under 90% relative humidity.
After 4 days, the eggs were placed upside down (round side up) for 5-10 minutes, before a round hole approximately 3 centimeters in diameter was created above the pointed end or “air hole” of the egg using sterile blunt-ended forceps (“deshelling”). The inner membrane was also removed, and the embryo was visible through this opening. A small portion of the outer membrane was then carefully removed using fine-tipped forceps in order to expose the CAM. Sterile Parafilm was placed over the de-shelled opening to create an airtight seal. The eggs were returned to the incubator (with no rotation) for 2 days.
Viable eggs were then treated with control and inhibitor compounds. Gelfoam™ gelatin sterile sponge (Upjohn) or 1-2 mm discs of methylcellulose saturated with physiological saline, buffer or an appropriate dilution of the compounds under investigation. The Gelfoam™ fragments of methylcellulose discs were added directly to the surface of the developing CAM. Care was taken not to add the treatment directly over a large vessel. The shells were marked in 3 places to aid in stereotactic localization of the treatment sponge or disc. An average of 6 eggs were included for each experimental condition. The treated eggs were returned to the incubator for 2 days.
The eggs were then assessed for blood vessel growth inhibition. Photomicrographs for records and visual examination were made using a Nikon dissecting microscope with an attached Nikon 35-mm camera body.

HUVEC [2] = assay: HUVEC endothelial proliferation in response to test compounds (MTS); assay type: cell-based
Experimental: (§4) Endothelial cell cultures: Cell lines used include HUVEC, EJG and MS1 and are routinely passaged 1 to 2 times weekly. Endothelial growth media (EGM) consists of Endothelial Base Media plus all supplements (Clonetics). For testing of compounds, endothelial cells were plated on 1% gelatin-coated plates. Prior to plating, gelatin solution was added to the plates for at least 10 minutes before plating, but excess solution removed immediately before adding cells. Sterile gelatin solution consists of 1% gelatin in dH2O that has been autoclaved. Endothelial cells form a characteristic cobblestone monolayer upon confluency. Typically, a T-75 plate contains 1 million microvascular cells upon confluency.
a. HUVEC Endothelial Proliferation in Response to Test compounds: HUVEC were cultured in 96-well plates and treated with a dilution series of test compounds for potential angiogenesis-related effects.
Day 0—Endothelium are plated at 5000 cells/well and at 10,000 cells/well.
Day1—Treatments are added in EGM culture medium in an appropriate dilution series (n=6 or 12). Controls included EGM alone, serum free medium (SFM), and EGM plus 0.5% DMSO.
Day 1-2, MTS/PMS solutions were added and plates read at 4 and 24 h after treatment.

IEC-18 Epithelium = assay: Matrigel invasion assay, IEC-18; assay type: cell-based; settings: 10 μm, 24 h, control 16.8
Experimental: as §1, §2, §3

HUVEC [3] = assay: 3H-Thymidine incorporation proliferation assay; assay type: cell-based; settings: 10 μm
Experimental: as §4
b. Thymidine incorporation proliferation assay: Cells were plated out and grown overnight. The next day the test compound or controls were added to the plates, along with diluted ^3H-thymidine added to a final concentration of 0.1 μCi/well, and the plates were incubated. After 24 h, the plates were spun down 1000 g for 10 min (for non-adherent cells) before removing the PBS. A volume of 120 μl of the scintillant fluid was added to each of the wells, and the plate was read.

[4] = HUVEC in log phase growth, 5 μm
[5] = HUVEC in log phase growth, 10 μm
[6] = HUVEC in log phase growth, 20 μm

NC(=O)c1nnsc1Nc1ccccc1 [KP-15807, 5-Phenylamino-[1,2,3]thiadiazole-4-carboxylicacid amide]
tumor growth compared to control (Lewis Lung cell line): succeeded in reducing tumor growth compared to control | melting point: 195 to 197 °C | % Cell Invasion (IEC-18-13 Epithelium): 8% | % Inhibition ([1]; 5 μm): 60% | % Inhibition ([1]; 10 μm): 75% | % Inhibition ([1]; 20 μm): 85% | MTS Relative Absorbance 4 h (HUVEC [2]; [4]): 1.26 +/− 0.17 | MTS Relative Absorbance 24 h (HUVEC [2]; [4]): 1.22 +/− 0.09 | MTS Relative Absorbance 4 h (HUVEC [2]; [5]): 1.31 +/− 0.09 | MTS Relative Absorbance 24 h (HUVEC [2]; [5]): 1.24 +/− 0.04 | MTS Relative Absorbance 4 h (HUVEC [2]; [6]): 1.25 +/− 0.03 | MTS Relative Absorbance 24 h (HUVEC [2]; [6]): 1.21 +/− 0.05 | MTS Relative Absorbance 4 h (HUVEC [2]; HUVEC post-confluent, 5 μm): 2.06 +/− 0.20 | MTS Relative Absorbance 24 h (HUVEC [2]; HUVEC post-confluent, 5 μm): 1.55 +/− 0.17 | MTS Relative Absorbance 4 h (HUVEC [2]; HUVEC post-confluent, 10 μm): 2.30 +/− 0.05 | MTS Relative Absorbance 24 h (HUVEC [2]; HUVEC post-confluent, 10 μm): 1.62 +/− 0.12 | MTS Relative Absorbance 4 h (HUVEC [2]; HUVEC post-confluent, 20 μm): 2.52 +/− 0.05 | MTS Relative Absorbance 24 h (HUVEC [2]; HUVEC post-confluent, 20 μm): 1.71 +/− 0.02 | % Cell Invasion (IEC-18 Epithelium): 9% | 3H-Thymidine incorporation at 24 h (HUVEC [3]; HUVEC in log phase growth): 746 +/− 200 | 3H-Thymidine incorporation at 48 h (HUVEC [3]; HUVEC in log phase growth): 1251 +/− 117 | 3H-Thymidine incorporation at 24 h (HUVEC [3]; HUVEC post-confluent): 571 +/− 86 | 3H-Thymidine incorporation at 48 h (HUVEC [3]; HUVEC post-confluent): 452 +/− 71*
